Experimental data from the pKa sets of Baltruschat and Czodrowski (2020).
Where a SMILES comes first, the peptide text is derived from it.

Conditions: acidic group

Structure (SMILES) | pKa
CC(C)CP(=O)(O)CC(C)C | 3.25
Cn1c(=O)[nH]c2c(ncn2C)c1=O | 6.3
Oc1c(Cc2ccccc2)c(-c2ccccc2)nn1-c1ccccc1 | 7.6
C=CC(CC(C)(C)C)c1ccc2cccnc2c1O (configuration not stated) | 9.8
O=C(O)/C=C/C(=O)c1ccccc1 | 3.34
O=P(O)(O)C([NH2+]Cc1ccc[nH+]c1)c1ccccc1O (configuration not stated) | 2.28
Oc1ccc2cc(I)ccc2c1 | 9.23
CNC(=O)CS(=O)(=O)NC(N)=O | 4.89
CCOC(=O)/C=C(/C)O | 9.51
COC(=O)C1c2ccccc2-c2ccccc21 | 11.5
C=C(C)[C@@H]1C[NH2+][C@H](C(=O)O)[C@@H]1CC(=O)O | 2.09
O=C(O)c1cscn1 | 3.64
Cc1ccccc1C[N+](=O)[O-] | 7.6
Brc1nnn[nH]1 | 2.13
CCCC(C)C1C(=O)NC(=S)N=C1[O-] (configuration not stated) | 11.4
Oc1ccc(OCc2ccccc2)cc1 | 10.5
COP(=O)(O)NS(=O)(=O)c1ccccc1 | 1.05
O[n+]1c2ccccc2nc2ccccc21 | 1.12
Oc1ccc2nc3ccccc3nc2c1 | 7.45
CN1C(=O)N/C(=C\c2ccccc2)C1=O | 9.6
O=C(c1ccc(Cl)cc1)c1cc[nH]n1 | 11.9
Nc1cccc(N)c1O | 10.5
N#Cc1ccc(C(=O)S)cc1 | 1.42
CCOc1cccc(C(=O)O)c1C | 3.73
N#CC(CCCCC(=O)O)c1ccccc1 (configuration not stated) | 4.75
NNC(=O)CS | 8.05
N#CC(C#N)=C(O)c1ccc(N)cc1 | 4.28

Structure (SMILES) | pKa
CC1CCn2nnnc2C(C(=O)O)C1 (configuration not stated) | 3.2
CC(O)(C(=O)O)c1ccccc1 (configuration not stated) | 3.53
[NH3+][C@@H](CCC(=O)O)C(=O)O | 2.08
Cc1nc2c(n1C)C(=O)c1[nH]c(=O)[nH]c(=O)c1C2=O | 5.82
CC(=N\O)/C(CN(C)C)=N\[O-] | 12.5
CNC(=O)c1ccccc1O | 8.03
C[n+]1ccc(C(=O)O)cc1 | 1.72
O=C([O-])[C@H](P)CC[C@H](P)C(=O)O | 4.49
[NH3+][C@@H](Cc1[nH+]c[nH]c1I)C(=O)O | 1.65
Nc1ccc(-c2nnn[nH]2)cc1 | 4.55
CC(=O)CC(=O)Nc1cccc(C)c1 | 10
COc1cc(S(C)=O)ccc1-c1nc2nccnc2[nH]1 (configuration not stated) | 8.94
CC(C)CC(N)C(N)=O (configuration not stated) | 8
CC(=O)c1ccccc1NN=C(C(=O)c1ccccc1)C(=O)c1ccccc1 | 9.2
Cc1ccccc1/C=C/C(=O)O | 4.5
O=C(O)C(c1ccc(C2CCCCC2)cc1)C(O)c1ccccc1 (configuration not stated) | 4.24
CC(C[NH3+])C(=O)O (configuration not stated) | 3.53
Nc1ccc(-c2ccc(/N=C/c3ccc(O)cc3)cc2)cc1 | 9.5
NC(=O)C1CC2CCN1CC2 (configuration not stated) | 9.04
NNC(=O)C(F)(F)C(F)(F)F | 7.92
Nc1ccc(O)c2ncccc12 | 11.2
O=CCCCC(=O)O | 5.02
S=C(NC(=S)c1ccccc1)Nc1ccccc1 | 10.7
Brc1ccccc1-c1nnn[nH]1 | 3.83
[NH3+][C@H]1CONC1=O | 4.54
C[NH+]1CSC[C@H]1C(=O)O | 1.51

Same assay, conditions: basic group

Structure (SMILES) | pKa
Cc1ccc2ccc3cccnc3c2n1 | 5.36
C[n+]1c([O-])c([O-])nc2ccccc21 | 9.74
C=CC(CC(C)(C)C)c1ccc2cccnc2c1O (configuration not stated) | 4.94
Nc1ncccc1C(=O)[O-] | 6.59
O=[N+]([O-])c1ccc([O-])c(CN2CCCCC2)c1 | 10.5
COc1cc(S(C)=O)ccc1-c1nc2cnccc2[nH]1 (configuration not stated) | 6.16
CCC(=O)c1ccccc1 | 17.6
O=C1CCc2ccccc2C1 | 12.8
N#Cc1cccc(N)c1 | 2.83
COc1ccc(-c2cc3ccncc3[nH]2)c(OC)c1 | 8.29
CCCSC(=N)c1ccccc1 | 8.1
O=C([O-])[C@@H]1CCCN1C(=O)[C@@H]1CCCN1 (H-Pro-Pro-OH) | 9.27
Cc1nccn1C | 7.64
O=C(O)c1cscn1 | 2.9
CCNc1ccnc([S-])n1 | 11.1
Cc1cccc(N)c1-c1c(C)cccc1[NH3+] | 2.1
N[C@@H]1CCCC[C@@H]1N | 9.84
c1ccc(-c2ccc3nc(C[NH+]4CCOCC4)cn3n2)cc1 | 1.4
c1cnc2ncncc2n1 | 4.13
Cc1ccc(-c2cnc(-c3ccccc3)o2)cc1 | 0.91
NCC(O)c1ccccc1 (configuration not stated) | 8.94
Cc1cn2nc(-c3ccccc3)cc(C)c2n1 | 5.3
Oc1ccc2nc3ccccc3nc2c1 | 2.6
CCSC(=O)c1ccc(C)cc1 | -4.2
Nc1cccc(N)c1O | 5.5

Structure (SMILES) | pKa
CCCN(CCC)Cc1ccccc1O | 8.3
Cc1cc(N)cc(C)c1C(=O)NCCN1CCOCC1 | 5.96
OCCNCCO | 9.04
Nc1ccc2c([N+](=O)[O-])cccc2c1 | 3.16
CCCCC[C@H](C)N | 10.8
CCNC(=O)C1CCCCN1 (configuration not stated) | 8.6
CN(C)CC(Cl)CCl (configuration not stated) | 7.5
CCCCCN(CC(O)CC)CC(O)CC (configuration not stated) | 9.2
COc1ccc(-c2nc3ncccc3[nH]2)c(OC)c1 | 4.63
CN1C2=CCCC1CCC2 (configuration not stated) | 8.8
CC(C)[C@@]12CN[C@@H](C(=O)[O-])[C@@H]1CC(=O)O2 | 7.8
C[n+]1c([O-])ccnc1[O-] | 9.94
Nc1ccc(N)cc1 | 6.16
c1ccc(-c2ncc[nH]2)nc1 | 5.46
CC1CCCCN1C (configuration not stated) | 10.3
C=C(C)C(=O)OCCN | 8.7
Fc1ccc2[nH]cnc2c1 | 5.11
CN(C)c1cccc2cccc(N(C)C)c12 | 12.1
COCCNc1ccc(Cl)cc1 | 3.3
Cc1cc(C)n(Cc2cc(C)[nH]n2)n1 | 3.5
Nc1cccc(I)c1 | 3.59
COCCCCNc1ccccc1 | 4.6
CCc1cccc(CN(C)C)c1O | 8.02
COc1ncnc2nccnc12 | 1.04
N=C(N)NOCC(=O)[O-] | 7.58

Structure (SMILES) | pKa
c1ccc([C@@H]2CN3CCC[C@@H]3c3ccccc32)cc1 | 9.12
c1ccc(C2CN3CCC2CC3)cc1 (configuration not stated) | 10.2
Nc1cnc2c(N)nc(N)nc2n1 | 6.3
Cn1c(=O)c2c(ncn2CC(=O)[O-])n(C)c1=O | 4.48
Cc1ccc2c(ccn2C)c1 | -2.15
N/C(=N\O)C(N)c1ccccc1 (configuration not stated) | 7.15
Cc1noc(-c2ccccc2)c1C(=O)O | 1.7
NCc1ccccc1[N+](=O)[O-] | 8.59
COC(=O)CCCc1c[nH]cn1 | 7.33
COc1cc(S(C)=O)ccc1-c1nc2ncc(N)cc2[nH]1 (configuration not stated) | 3.9
CCCCCC(C)NC (configuration not stated) | 11
NNC(=O)[C@H](Cc1c[nH]cn1)NC(=O)OCc1ccccc1 | 6.1
c1ccc2nccnc2c1 | 0.64
CC(C)C(N)C(C)C | 10.4
Clc1ccc(C2NCCS2)cc1 (configuration not stated) | 5.01
CCC[NH2+]CCN | 7.54
Nc1ccc(-c2ccc(/N=C/c3ccc(O)cc3)cc2)cc1 | 6.86
CCCCCCCCCCCC[NH2+]CCCN | 8.37
Nc1ccc(O)c2ncccc12 | 5.67
O=C1CCC[C@H]2[C@H]3C[C@@H](CN12)[C@@H]1CCCCN1C3 | 9.4
CN1C[C@@H](CO)C[C@H]2c3cccc4[nH]cc(c34)C[C@@H]21 | 8.3
OCCn1cnc2ccccc21 | 5.29
C=C(C)C(=O)OCCNC(C)C | 9.13
COC(=O)[C@H](Cc1c[nH]cn1)NC(C)=O | 6.3
